Measurements: paper PMC10823514, “Target Identification of a Class of Pyrazolone Protein Aggregation Inhibitor Therapeutics for Amyotrophic Lateral Sclerosis” (ACS Central Science, 2023)

How the values were obtained:
[1] = target: T1, 25 kDa protein band in PC12 SOD1^G93A cells (Rattus norvegicus, UniProt P62260); assay: Competition of PRAPP photoaffinity labeling of the 25 kDa band in PC12-SOD1^G93A cells; assay type: binding; details: 30 μM PRAPP
T1 construct: we identified a 25 kDa covalently modified protein band in the PC12 SOD1^G93A cell line; endogenous in cells; host or cells: PC12-SOD1^G93A cells (live-cell UV photolabeling, then lysis)
T1 sequence (P62260 1-255): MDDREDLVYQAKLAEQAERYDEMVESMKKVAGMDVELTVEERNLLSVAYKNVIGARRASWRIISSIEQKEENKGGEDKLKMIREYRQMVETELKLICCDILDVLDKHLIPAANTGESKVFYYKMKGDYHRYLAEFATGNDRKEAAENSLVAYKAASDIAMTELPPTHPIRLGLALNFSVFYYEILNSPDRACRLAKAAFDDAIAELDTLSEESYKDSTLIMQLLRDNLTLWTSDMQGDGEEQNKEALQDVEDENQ
Procedure: PC12-SOD1^G93A cells were cultured and grown to 90% confluency (in 6-well plates) and washed once with PBS followed by the addition of serum medium containing the appropriate analyte at the indicated concentrations. Three incubation scenarios were studied (at 37 °C): Scenario 1) 12 h preincubation with PRAPP in the absence of MG-132; Scenario 2) 12 h preincubation with PRAPP in the absence of MG-132 followed by an additional 24 h incubation (control); and Scenario 3) 12 h preincubation with PRAPP followed by the addition of MG-132 (100 nM) and an additional 24 h incubation. After incubation, the medium was discarded and cells were washed with PBS (1 × 300 μL). Fresh serum-free medium was added, and the cells were irradiated with UV light (312 nm, 120 V, 60 Hz, 0.2 A [Spectroline model EB-160C], distance ∼4 cm) for 15 min. The medium was removed, cells were washed with PBS (2 × 500 μL), and 200 μL of lysis buffer containing Tris HCl (25 mM, pH 7.6), NaCl (150 mM), 1% NP40, 1% sodium deoxycholate, 0.1% SDS, and protease inhibitor cocktail (Sigma-Aldrich, 1:100 v/v) was added to each well. Complete lysis was observed by a microscope after 10 min at 4 °C with agitation. Each lysate was centrifuged at 4 °C for 5 min at 13,000 rpm, and the resulting supernatant was concentrated with a centrifugal filter (Amicon Ultra Centrifugal Filters 3K cutoff, Millipore), normalized to 1.0 mg/mL by the Bradford assay, and analyzed immediately or stored at −80 °C for subsequent analysis.
In a darkened (wrapped with aluminum foil) Eppendorf tube, each lysate (30 μL [30 μg]) was incubated with 10 μL of the freshly prepared “click” premix containing CuSO4 (5 mM), sodium ascorbate (5 mM), TBTA (200 μM), and N3–Alexa-647 (50 μM) were added to PBS (50 mM, pH 7.4). The corresponding final concentrations within the lysate click incubation were: CuSO4 (1.25 mM), sodium ascorbate (1.25 mM), TBTA (50 μM), and N3–Alexa-647 (12.5 μM). The mixture was vortexed briefly and incubated for 1.5 h at 37 °C in the dark. NuPAGE LDS sample loading buffer (4 × 13 μL) was added, and the mixture was denatured in boiling water for 10 min. SDS-PAGE was performed on Novex Bis-Tris gel 4–12% with MES SDS running buffer (90 V constant for 30 min followed by 100 V for 90 min; load volume = 25 μL). Protein standards that gave appropriate visible and fluorescent bands for our application included the BioRad Precision Plus All Blue Protein Standard and Novex Pre-Stained Protein Standard. In-gel fluorescence was monitored (excitation λ = 635 nm; emission λ = 670 nm) using a Typhoon 9400 (GE Healthcare) fluorimager. Densitometric analysis and image refinement were carried out as needed using ImageJ software (NIH, open source). The contrast and brightness of images were modified using ImageJ and/or Microsoft Word to enhance visualization for publication purposes.

14-3-3-Q = target: T2, 14-3-3-Q (Homo sapiens, UniProt P27348); assay: Fluorescent thermal shift assay (FTSA) with 14-3-3-Q; assay type: binding
T2 construct: purchased Abchem (so in the source)
T2 sequence (P27348 1-245): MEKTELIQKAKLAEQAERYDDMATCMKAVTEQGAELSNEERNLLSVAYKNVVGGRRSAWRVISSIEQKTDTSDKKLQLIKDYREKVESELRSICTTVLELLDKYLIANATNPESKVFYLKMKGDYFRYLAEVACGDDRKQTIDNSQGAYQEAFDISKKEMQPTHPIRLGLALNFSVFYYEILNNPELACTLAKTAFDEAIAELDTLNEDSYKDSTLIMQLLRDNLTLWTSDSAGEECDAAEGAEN
Procedure: His-tagged 14-3-3-E, B, and H plasmids were purchased from Addgene (plasmid ID# 31562, 39128, and 38814, respectively). E. coli (BL21) were transformed with extracted plasmids via heat shock and plated on selected media. Individual colonies were selected, grown, and sequenced to confirm gene presence. 1 L cultures were grown to an OD600 of 0.6 at 37 °C and 220 rpm. Protein expression was induced with 1 mM IPTG and expressed for 12 h at 100 rpm and room temperature (approximately 25 °C). Cells were spun down at 4000 rpm for 15 min at 4 °C and resuspended in lysis buffer containing 50 mM Tris (7.4), 150 mM NaCl, 0.08% DDM, 5 mM imidazole, and 5% glycerol (with an EDTA-free complete mini protease inhibitor cocktail). Cells were lysed via sonication, and the lysate was separated from cell debris by centrifugation at 15,000 rpm, 4 °C, for 45 min. The His-tagged protein was purified using QIAGEN Ni-NTA superflow columns, and the His-tag was removed with TEV protease. His-tag-removed proteins were further purified by size exclusion chromatography. His tag removal and size exclusion chromatography purification were done at the Northwestern University Protein Production core. […]
All of the FTSA experiments were conducted in HEPES buffer (60 mM HEPES, 150 mM NaCl, pH 7.4). […] The fluorescence was measured on a Bio-Rad CFX384 real-time PCR instrument.

Structure (SMILES): O=c1cc(COc2cc(Cl)cc(Cl)c2)[nH][nH]1 [P2]
- competitor to PRAPP ratio at complete disappearance of the band [1]: 6
- EC50 ([1]; scenario 1, n = 2, read-out: EC50 for the competition with PRAPP (25 kDa band intensity)): 11.1 µM
- Tm shift (ΔTm) (14-3-3-Q; SYPRO orange): 1.1 °C
- Kd (14-3-3-Q; fit of ΔTm versus concentration, n = 2, read-out: Kd^app): 4.32 µM
